Experiments:
Rattus norvegicus = species on record: Rattus norvegicus; experiment: The inhibitory concentration of compound against sodium dependent [3H]GABA synaptosomal uptake in rats; format: functional
[1] = molecular target: GABA-A receptor; anion channel; experiment: Displacement of [3H]GABA from Gamma-aminobutyric acid A (GABA-A) receptor in rat brain membranes; format: cell membranes
GABA B receptor = GABA B receptor (Rattus norvegicus, UniProt O88871+Q9Z0U4); experiment: Displacement of [3H]baclofen from Gamma-aminobutyric acid type B receptor in rat brain membranes; format: cell membranes
GABA B receptor, sequence (Q9Z0U4 whole entry): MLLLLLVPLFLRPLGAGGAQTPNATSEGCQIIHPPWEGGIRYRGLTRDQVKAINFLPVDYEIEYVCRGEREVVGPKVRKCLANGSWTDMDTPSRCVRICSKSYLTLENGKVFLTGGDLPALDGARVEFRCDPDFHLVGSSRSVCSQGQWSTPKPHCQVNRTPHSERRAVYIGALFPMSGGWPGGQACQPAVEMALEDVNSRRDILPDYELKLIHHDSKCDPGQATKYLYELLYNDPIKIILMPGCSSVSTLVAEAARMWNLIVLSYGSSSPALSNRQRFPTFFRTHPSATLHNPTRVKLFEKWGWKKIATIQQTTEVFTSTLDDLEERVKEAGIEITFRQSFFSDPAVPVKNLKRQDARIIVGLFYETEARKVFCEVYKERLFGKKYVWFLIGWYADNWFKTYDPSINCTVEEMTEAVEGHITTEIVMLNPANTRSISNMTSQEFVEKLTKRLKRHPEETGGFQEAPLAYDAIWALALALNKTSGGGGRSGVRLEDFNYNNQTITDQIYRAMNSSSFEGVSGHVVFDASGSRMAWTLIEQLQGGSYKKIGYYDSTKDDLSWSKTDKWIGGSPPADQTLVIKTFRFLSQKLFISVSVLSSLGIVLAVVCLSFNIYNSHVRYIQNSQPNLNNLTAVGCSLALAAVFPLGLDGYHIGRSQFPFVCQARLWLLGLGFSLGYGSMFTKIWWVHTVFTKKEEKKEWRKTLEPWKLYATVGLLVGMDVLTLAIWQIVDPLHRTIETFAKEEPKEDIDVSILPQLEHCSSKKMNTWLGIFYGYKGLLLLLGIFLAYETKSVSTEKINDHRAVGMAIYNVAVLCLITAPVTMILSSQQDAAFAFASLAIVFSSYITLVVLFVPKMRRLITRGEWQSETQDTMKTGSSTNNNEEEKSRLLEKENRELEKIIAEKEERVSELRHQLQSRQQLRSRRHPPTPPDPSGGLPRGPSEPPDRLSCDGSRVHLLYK
GABA B receptor, sequence (O88871 whole entry): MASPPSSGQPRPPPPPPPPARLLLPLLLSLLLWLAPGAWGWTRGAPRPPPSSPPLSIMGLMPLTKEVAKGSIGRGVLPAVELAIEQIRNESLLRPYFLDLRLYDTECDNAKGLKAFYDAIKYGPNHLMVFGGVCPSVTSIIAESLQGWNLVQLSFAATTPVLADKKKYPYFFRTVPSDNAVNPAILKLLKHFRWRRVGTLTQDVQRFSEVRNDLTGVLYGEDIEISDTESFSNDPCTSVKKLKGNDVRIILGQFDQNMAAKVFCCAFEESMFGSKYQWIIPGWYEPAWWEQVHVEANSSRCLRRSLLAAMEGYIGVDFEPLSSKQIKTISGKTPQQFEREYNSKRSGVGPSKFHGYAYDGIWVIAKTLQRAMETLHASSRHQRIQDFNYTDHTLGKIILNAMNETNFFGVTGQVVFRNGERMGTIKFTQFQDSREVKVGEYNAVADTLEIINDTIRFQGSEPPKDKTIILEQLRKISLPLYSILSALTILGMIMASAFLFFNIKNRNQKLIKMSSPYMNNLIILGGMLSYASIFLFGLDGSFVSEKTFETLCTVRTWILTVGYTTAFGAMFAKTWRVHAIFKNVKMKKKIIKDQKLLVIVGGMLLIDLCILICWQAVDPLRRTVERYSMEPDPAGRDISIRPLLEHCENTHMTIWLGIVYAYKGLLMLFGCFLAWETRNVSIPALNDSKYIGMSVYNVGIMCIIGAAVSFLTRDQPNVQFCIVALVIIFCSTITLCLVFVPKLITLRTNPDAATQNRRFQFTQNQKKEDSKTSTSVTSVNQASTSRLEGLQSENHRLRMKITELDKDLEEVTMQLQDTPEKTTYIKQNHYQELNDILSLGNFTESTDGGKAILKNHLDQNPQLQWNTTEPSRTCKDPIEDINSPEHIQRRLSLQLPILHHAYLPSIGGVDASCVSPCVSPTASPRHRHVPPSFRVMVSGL

SMILES | IC50 (Rattus norvegicus) [µM] | IC50 [1] [µM] | IC50 (GABA B receptor) [µM]
NCC(CC(=O)O)c1ccc(Cl)cc1 (stereo not drawn) [BACLOFEN] | 1.8 | 0.03 | 
O=C(O)C1CCCNC1 (stereo not drawn) [NIPECOTIC ACID] | 5.6 | > 100 | > 100
NCC1CC(=O)C=C(O)C1 (stereo not drawn) | > 100 | 65 | > 100
